Where two headings read alike, the source gives them in different places. Marks after values point to notes of the source that are not given here. Blank lines part the entries; values can stand above or below the molecule they belong to. Peptide text beside a SMILES is read from it. * marks the point of attachment. 5FAM = O=C1OC2(c3ccc(O)cc3Oc3cc(O)ccc32)c2ccc(C(=O)*)cc21
Assays:
[1] = Aqueous solubility / precipitation of donor solutions (observation); format: physicochemical; conditions: for solubility in aqueous medium: fluorescein (FL) as cargo, not used in ex vivo permeation experiments; for solubilization of donor solution: 250 µM, PBS pH 7.4
Description: (§1) Permeation experiments across freshly porcine cornea were performed following a method previously reported. In detail, transparent porcine corneas were isolated from fresh pig eyes (breed: Large White and Landrace; weight: 145–190 kg; age: 10–11 months; sex: female and male; Macello Annoni SpA, Busseto, Italy) and supported by glass Franz-type diffusion cells, having a permeation area of 0.2 cm^2. The epithelial side was in contact with the donor, i.e., 200 µL of aqueous solution containing a peptide: each concentration and solvent are indicated in Table 2. Donor concentrations were selected based on different solubility and analytical sensitivity (see paragraph 2.4 and Table S2). For some peptides, the solubilization was improved by dissolving the raw material using small amount of DMSO (final concentration less than 5% v/v), and then PBS or PBS+0.1% BSA were alternately added.
We have also analysed if the sequence reciprocity (GG vs. R) plays a role in the diffusivity of the peptide across the cornea and we found no difference between most of the paired sequences, namely PNT-GG 2 vs. PNT-R 4, PNT-GG 3 vs. PNT-R 3, PNT-GG 4 vs. PNT-R 2, PNT-GG 5 vs. PNT-R 1 (Figure 3b). This confirms that the sequence is only one of the factors affecting the translocation: in fact, even CPP concentration, type of cells, and cargo can strongly influence CPP final behavior/activity. […] Differently, the presence of FAM, a more hydrophilic fluorescent probe, allowed for aqueous solutions ranging in concentration from 25 to 250 µM (Table 2).

[2] = Ex vivo trans-corneal permeation, Franz-type diffusion cells; format: in vitro ADME, pig; conditions: ex vivo porcine cornea, area 0.2 cm^2, 37 °C, 6 h, fluorescence 485/535 nm, mean ± sd
Description: as §1
To fill the receptor compartment, around 4 mL of degassed PBS or PBS+0.1% BSA was used (see Table 2), being kept at 37 °C and maintained under magnetic stirring to avoid any boundary layer effect. The presence of 0.1% BSA aids in preventing peptides aggregation. Permeation experiments lasted 6 h, and for quantification purposes, 200 µL of the receiving solution were collected every hour and reintegrated with fresh medium. Each condition was replicated between 3 and 4 times, using cornea isolated from different animals.
Permeation samples were analysed without preliminary separation by fluorescence, using a Spark 10M microplate reader (Tecan Trading AG, Switzerland); excitation and emission wavelengths were 485 nm and 535 nm, respectively. Standard solutions were prepared in PBS pH 7.4 or in PBS containing BSA 0.1%. RSD% (relative standard deviation %) was lower than 10%, while ER% (relative error %) resulted lower than 15%.
The amount of CPP permeated across the cornea (nmol/cm^2) is plotted against time (hour): the slope of the regression line at steady state represents the trans-corneal flux J (nmol/cm^2 h). The apparent permeability coefficient Papp (cm/s) is then calculated as Equation (1): Papp = J/c(1) being c (µM) the concentration of the donor solution. Papp allows for a direct comparison among permeants studied using different donor concentrations.

[3] = FAM alone, trans-corneal; cited from earlier work
Source text: Finally, also the propensity of CPPs to enter corneal epithelium and endothelium cells should be considered.

[4] = donor 25 µM, 200 µL, donor and receiving solutions PBS pH 7.4, n = 4
[5] = donor 250 µM, 200 µL, donor and receiving solutions PBS pH 7.4, n = 3-4
[6] = donor 100 µM, 200 µL, donor and receiving solutions PBS+BSA 0.1% pH 7.4, n = 3

solubility in aqueous medium [1]: poorly soluble
Molecule: FL-GG-WKMRRNQF [PNT-R-4-FL, fluorescein-GG-labelled analogue of PNT-R 4, C-terminal amide]

Molecule: CC[C@H](C)[C@H](NC(=O)[C@H](CCCCN)NC(=O)[C@@H](NC(=O)[C@H](CCC(N)=O)NC(=O)[C@H](CCCNC(=N)N)NC(=O)CNC(=O)CNC(=O)c1ccc2c(c1)C(=O)OC21c2ccc(O)cc2Oc2cc(O)ccc21)[C@@H](C)CC)C(=O)N[C@@H](Cc1c[nH]c2ccccc12)C(=O)N[C@@H](Cc1ccccc1)C(=O)N[C@@H](CCC(N)=O)C(=O)N[C@@H](CC(N)=O)C(=O)N[C@@H](CCCNC(=N)N)C(=O)N[C@@H](CCCNC(=N)N)C(=O)N[C@@H](CCSC)C(=O)N[C@@H](CCCCN)C(=O)N[C@@H](Cc1c[nH]c2ccccc12)C(=O)N[C@@H](CCCCN)C(=O)N[C@@H](CCCCN)C(N)=O [PNT-GG]
Papp (apparent permeability coefficient) [2, 4]: 4.41 ± 2.93 × 10^−6 cm/s
solubilization of donor solution [1]: complete solubilization

Papp (apparent permeability coefficient) [2, 5]: 0.23 ± 0.16 × 10^−6 cm/s
Molecule: CC[C@H](C)[C@H](NC(=O)[C@H](CCCCN)NC(=O)[C@@H](NC(=O)[C@H](Cc1c[nH]c2ccccc12)NC(=O)[C@H](Cc1ccccc1)NC(=O)[C@H](CCC(N)=O)NC(=O)[C@H](CC(N)=O)NC(=O)[C@H](CCCNC(=N)N)NC(=O)CNC(=O)CNC(=O)c1ccc2c(c1)C(=O)OC21c2ccc(O)cc2Oc2cc(O)ccc21)[C@@H](C)CC)C(N)=O [PNT-R 2] (5FAM-GGRNQFWIKI-NH2)

Papp (apparent permeability coefficient) ([2]; epithelial side to donor, donor 100 µM, 200 µL, donor and receiving solutions PBS pH 7.4, hourly sampling, n = 3-4): 1.33 ± 0.11 × 10^−6 cm/s
Molecule: CSCC[C@H](NC(=O)[C@H](CCCNC(=N)N)NC(=O)[C@H](CCCNC(=N)N)NC(=O)[C@H](CC(N)=O)NC(=O)CNC(=O)CNC(=O)c1ccc2c(c1)C(=O)OC21c2ccc(O)cc2Oc2cc(O)ccc21)C(=O)N[C@@H](CCCCN)C(=O)N[C@@H](Cc1c[nH]c2ccccc12)C(=O)N[C@@H](CCCCN)C(=O)N[C@@H](CCCCN)C(N)=O [PNT-GG 1] (5FAM-GGNRRMKWKK-NH2)

solubility in aqueous medium [1]: poorly soluble
Molecule: FL-GG-KKWKMRRNQFWIKIQR [PNT-R-FL, fluorescein-GG-labelled reversed penetratin, C-terminal amide]

Papp (apparent permeability coefficient) [2, 5]: 0.002 ± 0.004 × 10^−6 cm/s
Molecule: CC[C@H](C)[C@H](NC(=O)[C@H](Cc1c[nH]c2ccccc12)NC(=O)[C@H](Cc1ccccc1)NC(=O)[C@H](CCC(N)=O)NC(=O)[C@H](CC(N)=O)NC(=O)[C@H](CCCNC(=N)N)NC(=O)[C@H](CCCNC(=N)N)NC(=O)[C@H](CCSC)NC(=O)CNC(=O)CNC(=O)c1ccc2c(c1)C(=O)OC21c2ccc(O)cc2Oc2cc(O)ccc21)C(N)=O [PNT-R 3] (5FAM-GGMRRNQFWI-NH2)

Papp (apparent permeability coefficient) [2, 5]: 0.93 ± 0.53 × 10^−6 cm/s
Molecule: CC[C@H](C)[C@H](NC(=O)[C@H](CCCCN)NC(=O)[C@@H](NC(=O)[C@H](Cc1c[nH]c2ccccc12)NC(=O)[C@H](Cc1ccccc1)NC(=O)[C@H](CCC(N)=O)NC(=O)CNC(=O)CNC(=O)c1ccc2c(c1)C(=O)OC21c2ccc(O)cc2Oc2cc(O)ccc21)[C@@H](C)CC)C(=O)N[C@@H](CCC(N)=O)C(=O)N[C@@H](CCCNC(=N)N)C(N)=O [PNT-R 1] (5FAM-GGQFWIKIQR-NH2)

Papp (apparent permeability coefficient) [2, 6]: 0.55 ± 0.57 × 10^−6 cm/s
Molecule: CSCC[C@H](NC(=O)[C@H](CCCNC(=N)N)NC(=O)[C@H](CCCNC(=N)N)NC(=O)[C@H](CC(N)=O)NC(=O)[C@H](CCC(N)=O)NC(=O)[C@H](Cc1ccccc1)NC(=O)CNC(=O)CNC(=O)c1ccc2c(c1)C(=O)OC21c2ccc(O)cc2Oc2cc(O)ccc21)C(=O)N[C@@H](CCCCN)C(=O)N[C@@H](Cc1c[nH]c2ccccc12)C(N)=O [PNT-GG 2] (5FAM-GGFQNRRMKW-NH2)

Papp (apparent permeability coefficient) [2, 6]: 0.44 ± 0.50 × 10^−6 cm/s
Molecule: CC[C@H](C)[C@H](NC(=O)CNC(=O)CNC(=O)c1ccc2c(c1)C(=O)OC21c2ccc(O)cc2Oc2cc(O)ccc21)C(=O)N[C@@H](Cc1c[nH]c2ccccc12)C(=O)N[C@@H](Cc1ccccc1)C(=O)N[C@@H](CCC(N)=O)C(=O)N[C@@H](CC(N)=O)C(=O)N[C@@H](CCCNC(=N)N)C(=O)N[C@@H](CCCNC(=N)N)C(=O)N[C@@H](CCSC)C(N)=O [PNT-GG 3] (5FAM-GGIWFQNRRM-NH2)

Papp (apparent permeability coefficient) [2, 4]: 7.08 ± 6.66 × 10^−6 cm/s
solubilization of donor solution [1]: complete solubilization
Molecule: CC[C@H](C)[C@H](NC(=O)[C@H](CCCCN)NC(=O)[C@@H](NC(=O)[C@H](Cc1c[nH]c2ccccc12)NC(=O)[C@H](Cc1ccccc1)NC(=O)[C@H](CCC(N)=O)NC(=O)[C@H](CC(N)=O)NC(=O)[C@H](CCCNC(=N)N)NC(=O)[C@H](CCCNC(=N)N)NC(=O)[C@H](CCSC)NC(=O)[C@H](CCCCN)NC(=O)[C@H](Cc1c[nH]c2ccccc12)NC(=O)[C@H](CCCCN)NC(=O)[C@H](CCCCN)NC(=O)CNC(=O)CNC(=O)c1ccc2c(c1)C(=O)OC21c2ccc(O)cc2Oc2cc(O)ccc21)[C@@H](C)CC)C(=O)N[C@@H](CCC(N)=O)C(=O)N[C@@H](CCCNC(=N)N)C(N)=O [PNT-R] (5FAM-GGKKWKMRRNQFWIKIQR-NH2)

Papp (apparent permeability coefficient) ([2]; donor 100 µM in PBS pH 7.4, receiving solution PBS+BSA 0.1% pH 7.4, n = 3): 0.50 ± 0.70 ^d × 10^−6 cm/s
Papp (apparent permeability coefficient) [2, 6]: 0.24 ± 0.40 ^d × 10^−6 cm/s
Molecule: CC[C@H](C)[C@H](NC(=O)[C@H](CCCCN)NC(=O)[C@@H](NC(=O)[C@H](CCC(N)=O)NC(=O)[C@H](CCCNC(=N)N)NC(=O)CNC(=O)CNC(=O)c1ccc2c(c1)C(=O)OC21c2ccc(O)cc2Oc2cc(O)ccc21)[C@@H](C)CC)C(=O)N[C@@H](Cc1c[nH]c2ccccc12)C(=O)N[C@@H](Cc1ccccc1)C(=O)N[C@@H](CCC(N)=O)C(N)=O [PNT-GG 5] (5FAM-GGRQIKIWFQ-NH2)

Papp (apparent permeability coefficient) [2, 6]: 0.34 ± 0.14 × 10^−6 cm/s
Molecule: CC[C@H](C)[C@H](NC(=O)CNC(=O)CNC(=O)c1ccc2c(c1)C(=O)OC21c2ccc(O)cc2Oc2cc(O)ccc21)C(=O)N[C@@H](CCCCN)C(=O)N[C@H](C(=O)N[C@@H](Cc1c[nH]c2ccccc12)C(=O)N[C@@H](Cc1ccccc1)C(=O)N[C@@H](CCC(N)=O)C(=O)N[C@@H](CC(N)=O)C(=O)N[C@@H](CCCNC(=N)N)C(N)=O)[C@@H](C)CC [PNT-GG 4] (5FAM-GGIKIWFQNR-NH2)

Molecule: 5(6)-Carboxyfluorescein [FAM]
Papp (apparent permeability coefficient) [3]: 0.29 ± 0.08 × 10^−6 cm/s

Papp (apparent permeability coefficient) [2, 5]: 0.13 ± 0.07 × 10^−6 cm/s
Molecule: CSCC[C@H](NC(=O)[C@H](CCCCN)NC(=O)[C@H](Cc1c[nH]c2ccccc12)NC(=O)CNC(=O)CNC(=O)c1ccc2c(c1)C(=O)OC21c2ccc(O)cc2Oc2cc(O)ccc21)C(=O)N[C@@H](CCCNC(=N)N)C(=O)N[C@@H](CCCNC(=N)N)C(=O)N[C@@H](CC(N)=O)C(=O)N[C@@H](CCC(N)=O)C(=O)N[C@@H](Cc1ccccc1)C(N)=O [PNT-R 4] (5FAM-GGWKMRRNQF-NH2)

Papp (apparent permeability coefficient) [2, 5]: 0.05 ± 0.01 × 10^−6 cm/s
Molecule: CSCC[C@H](NC(=O)[C@H](CCCCN)NC(=O)[C@H](Cc1c[nH]c2ccccc12)NC(=O)[C@H](CCCCN)NC(=O)[C@H](CCCCN)NC(=O)CNC(=O)CNC(=O)c1ccc2c(c1)C(=O)OC21c2ccc(O)cc2Oc2cc(O)ccc21)C(=O)N[C@@H](CCCNC(=N)N)C(=O)N[C@@H](CCCNC(=N)N)C(=O)N[C@@H](CC(N)=O)C(N)=O [PNT-R 5] (5FAM-GGKKWKMRRN-NH2)
